Publication PMC8213057, “Targeting ALK2: An Open Science Approach to Developing Therapeutics for the Treatment of Diffuse Intrinsic Pontine Glioma” (Journal of Medicinal Chemistry, 2020)

Columns and labels:
MYO3A = MYO3A (Homo sapiens, UniProt Q8NEV4); settings: 1 μM; Run 1, Run 2
TESK2 = TESK2 (Homo sapiens, UniProt Q96S53); assay: biochemical; settings: read-out: % enzyme activity, 1 μM; Run 1, Run 2
CAMK1g = CAMK1g (Homo sapiens, UniProt Q96NX5); settings: 1 μM; Run 1, Run 2
TLK1 = molecular target: T1, TLK1 (Homo sapiens, UniProt Q9UKI8); assay: biochemical; settings: read-out: % enzyme activity, 1 μM; Run 1, Run 2
T1 sequence (Q9UKI8 1-766): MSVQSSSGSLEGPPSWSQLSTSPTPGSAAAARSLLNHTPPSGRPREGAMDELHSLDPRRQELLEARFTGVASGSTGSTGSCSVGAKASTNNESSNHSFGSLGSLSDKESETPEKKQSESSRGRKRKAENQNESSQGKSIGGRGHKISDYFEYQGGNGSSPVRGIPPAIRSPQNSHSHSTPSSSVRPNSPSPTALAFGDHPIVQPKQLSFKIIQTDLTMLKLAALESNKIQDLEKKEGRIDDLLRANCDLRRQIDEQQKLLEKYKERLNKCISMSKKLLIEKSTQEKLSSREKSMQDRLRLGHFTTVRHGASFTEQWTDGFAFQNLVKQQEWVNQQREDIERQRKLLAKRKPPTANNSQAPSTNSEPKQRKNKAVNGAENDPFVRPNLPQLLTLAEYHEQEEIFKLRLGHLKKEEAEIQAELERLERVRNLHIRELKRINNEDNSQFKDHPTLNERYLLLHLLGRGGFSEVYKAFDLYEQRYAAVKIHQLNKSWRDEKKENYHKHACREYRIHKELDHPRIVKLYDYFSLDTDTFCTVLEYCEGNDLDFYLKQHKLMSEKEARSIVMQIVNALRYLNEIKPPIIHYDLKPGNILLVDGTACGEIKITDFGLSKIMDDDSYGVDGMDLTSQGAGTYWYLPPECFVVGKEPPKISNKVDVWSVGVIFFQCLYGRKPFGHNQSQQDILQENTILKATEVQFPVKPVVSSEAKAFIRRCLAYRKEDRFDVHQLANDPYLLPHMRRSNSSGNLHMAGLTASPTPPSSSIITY

PEAK1 = PEAK1 (Homo sapiens, UniProt Q9H792); assay: biochemical; settings: read-out: % enzyme activity, 1 μM; Run 1, Run 2
PKA = PKA (Homo sapiens, UniProt P17612); assay: biochemical; settings: read-out: % enzyme activity, 1 μM; Run 1, Run 2
YSK4/MAP3K19 = molecular target: T2, YSK4/MAP3K19 (Homo sapiens, UniProt Q56UN5); assay: biochemical; settings: read-out: % enzyme activity, 1 μM; Run 1, Run 2
T2 sequence (Q56UN5 1-1328): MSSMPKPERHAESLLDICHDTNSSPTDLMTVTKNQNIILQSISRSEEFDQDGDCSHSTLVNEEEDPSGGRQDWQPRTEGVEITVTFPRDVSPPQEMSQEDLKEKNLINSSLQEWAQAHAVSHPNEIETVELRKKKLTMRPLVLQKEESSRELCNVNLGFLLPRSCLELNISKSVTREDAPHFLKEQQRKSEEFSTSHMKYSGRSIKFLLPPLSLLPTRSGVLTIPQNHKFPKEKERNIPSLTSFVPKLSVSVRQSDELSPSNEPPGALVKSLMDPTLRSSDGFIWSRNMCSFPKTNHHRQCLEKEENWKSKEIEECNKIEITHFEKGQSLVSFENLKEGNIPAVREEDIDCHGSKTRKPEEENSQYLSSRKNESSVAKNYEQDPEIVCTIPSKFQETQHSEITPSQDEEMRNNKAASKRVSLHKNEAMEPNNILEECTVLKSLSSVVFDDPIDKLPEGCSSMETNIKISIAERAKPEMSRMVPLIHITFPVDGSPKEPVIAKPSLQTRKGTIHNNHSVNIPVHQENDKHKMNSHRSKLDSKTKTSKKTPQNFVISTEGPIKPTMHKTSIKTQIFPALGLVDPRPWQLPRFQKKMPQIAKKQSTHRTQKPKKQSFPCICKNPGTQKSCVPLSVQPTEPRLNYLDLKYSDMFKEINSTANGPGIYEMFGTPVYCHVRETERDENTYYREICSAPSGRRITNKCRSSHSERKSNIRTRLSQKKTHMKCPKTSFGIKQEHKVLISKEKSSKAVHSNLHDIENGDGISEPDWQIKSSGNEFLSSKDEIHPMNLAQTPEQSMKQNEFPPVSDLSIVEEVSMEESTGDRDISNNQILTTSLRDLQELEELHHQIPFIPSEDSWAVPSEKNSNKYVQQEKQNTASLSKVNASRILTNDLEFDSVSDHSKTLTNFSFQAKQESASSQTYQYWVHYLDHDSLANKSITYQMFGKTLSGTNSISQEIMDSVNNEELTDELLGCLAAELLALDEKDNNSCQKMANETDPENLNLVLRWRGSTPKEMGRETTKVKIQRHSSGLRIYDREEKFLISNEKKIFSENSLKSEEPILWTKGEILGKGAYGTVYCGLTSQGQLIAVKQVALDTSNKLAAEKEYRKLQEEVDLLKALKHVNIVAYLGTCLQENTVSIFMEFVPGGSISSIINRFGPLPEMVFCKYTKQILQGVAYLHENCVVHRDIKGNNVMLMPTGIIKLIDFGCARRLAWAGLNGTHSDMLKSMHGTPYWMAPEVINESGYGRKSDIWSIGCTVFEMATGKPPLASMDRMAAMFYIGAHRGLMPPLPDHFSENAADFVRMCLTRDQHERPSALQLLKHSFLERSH

Chain of TESK2 (Q96S53 whole entry): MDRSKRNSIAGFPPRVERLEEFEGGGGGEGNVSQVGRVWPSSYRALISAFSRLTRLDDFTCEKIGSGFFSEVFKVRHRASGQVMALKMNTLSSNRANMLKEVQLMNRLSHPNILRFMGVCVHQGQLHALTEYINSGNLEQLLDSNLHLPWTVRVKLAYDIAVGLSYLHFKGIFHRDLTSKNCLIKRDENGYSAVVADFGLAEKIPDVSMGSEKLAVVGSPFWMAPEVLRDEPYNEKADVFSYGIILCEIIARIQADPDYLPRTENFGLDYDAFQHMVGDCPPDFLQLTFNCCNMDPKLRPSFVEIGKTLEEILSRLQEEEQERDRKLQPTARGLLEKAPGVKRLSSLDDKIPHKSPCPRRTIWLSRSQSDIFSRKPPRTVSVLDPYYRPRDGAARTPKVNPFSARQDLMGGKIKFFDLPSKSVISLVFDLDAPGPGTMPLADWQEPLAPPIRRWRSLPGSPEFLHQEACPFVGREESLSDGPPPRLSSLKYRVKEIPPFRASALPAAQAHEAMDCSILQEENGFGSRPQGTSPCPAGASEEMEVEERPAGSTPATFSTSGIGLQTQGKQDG
Chain of CAMK1g (Q96NX5 whole entry): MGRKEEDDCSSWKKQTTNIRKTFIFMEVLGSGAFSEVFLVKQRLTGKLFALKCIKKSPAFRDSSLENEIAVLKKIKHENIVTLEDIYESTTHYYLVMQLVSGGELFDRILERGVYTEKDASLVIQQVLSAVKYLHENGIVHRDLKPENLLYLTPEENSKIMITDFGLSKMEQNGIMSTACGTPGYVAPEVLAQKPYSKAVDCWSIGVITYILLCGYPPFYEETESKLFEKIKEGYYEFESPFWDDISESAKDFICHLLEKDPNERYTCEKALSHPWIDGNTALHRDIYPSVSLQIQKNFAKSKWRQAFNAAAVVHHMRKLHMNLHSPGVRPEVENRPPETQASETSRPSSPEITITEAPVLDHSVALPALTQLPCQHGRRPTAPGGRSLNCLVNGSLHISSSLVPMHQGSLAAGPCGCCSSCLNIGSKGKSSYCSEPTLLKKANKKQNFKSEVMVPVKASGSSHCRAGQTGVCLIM
Chain of MYO3A (Q8NEV4 whole entry): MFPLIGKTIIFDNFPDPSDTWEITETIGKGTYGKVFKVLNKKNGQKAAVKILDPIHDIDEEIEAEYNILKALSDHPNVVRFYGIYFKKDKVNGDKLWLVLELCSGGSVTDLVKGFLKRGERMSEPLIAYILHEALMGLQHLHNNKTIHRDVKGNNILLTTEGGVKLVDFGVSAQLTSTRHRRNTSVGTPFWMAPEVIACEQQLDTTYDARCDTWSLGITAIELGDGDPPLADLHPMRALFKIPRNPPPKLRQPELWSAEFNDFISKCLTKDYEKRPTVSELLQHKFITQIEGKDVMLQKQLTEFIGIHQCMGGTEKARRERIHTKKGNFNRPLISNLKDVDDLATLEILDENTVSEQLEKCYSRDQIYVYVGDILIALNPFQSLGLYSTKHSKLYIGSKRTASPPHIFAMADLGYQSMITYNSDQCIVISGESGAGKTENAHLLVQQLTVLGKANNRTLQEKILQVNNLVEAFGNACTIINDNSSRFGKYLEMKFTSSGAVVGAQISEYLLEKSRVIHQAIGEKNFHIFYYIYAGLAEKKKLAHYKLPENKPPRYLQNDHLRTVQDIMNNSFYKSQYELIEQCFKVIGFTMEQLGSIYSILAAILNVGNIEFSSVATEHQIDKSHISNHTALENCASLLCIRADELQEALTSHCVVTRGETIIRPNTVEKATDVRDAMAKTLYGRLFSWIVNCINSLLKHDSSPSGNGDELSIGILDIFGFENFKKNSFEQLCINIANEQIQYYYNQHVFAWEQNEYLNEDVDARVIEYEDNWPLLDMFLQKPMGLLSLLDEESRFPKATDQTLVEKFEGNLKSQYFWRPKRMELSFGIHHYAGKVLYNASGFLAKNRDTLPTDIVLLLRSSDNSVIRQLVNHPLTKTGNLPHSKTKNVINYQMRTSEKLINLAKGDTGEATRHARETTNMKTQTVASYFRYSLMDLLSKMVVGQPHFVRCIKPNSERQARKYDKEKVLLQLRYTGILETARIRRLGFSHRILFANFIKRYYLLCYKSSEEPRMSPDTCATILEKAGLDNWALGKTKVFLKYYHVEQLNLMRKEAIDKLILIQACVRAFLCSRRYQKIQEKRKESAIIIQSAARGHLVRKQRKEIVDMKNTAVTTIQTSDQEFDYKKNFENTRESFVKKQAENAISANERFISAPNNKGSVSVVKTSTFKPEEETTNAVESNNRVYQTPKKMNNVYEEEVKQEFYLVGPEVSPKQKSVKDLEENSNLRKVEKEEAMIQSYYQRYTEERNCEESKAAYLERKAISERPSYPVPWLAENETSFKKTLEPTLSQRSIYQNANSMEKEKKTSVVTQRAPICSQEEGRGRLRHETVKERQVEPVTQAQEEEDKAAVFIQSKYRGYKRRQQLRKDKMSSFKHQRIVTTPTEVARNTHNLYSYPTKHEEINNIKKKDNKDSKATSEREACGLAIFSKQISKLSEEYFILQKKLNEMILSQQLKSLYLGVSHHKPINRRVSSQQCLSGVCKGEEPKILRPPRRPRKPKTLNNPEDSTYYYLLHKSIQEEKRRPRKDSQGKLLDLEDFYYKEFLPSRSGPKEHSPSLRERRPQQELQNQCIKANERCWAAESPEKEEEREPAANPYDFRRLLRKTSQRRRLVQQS
Chain of PEAK1 (Q9H792 whole entry): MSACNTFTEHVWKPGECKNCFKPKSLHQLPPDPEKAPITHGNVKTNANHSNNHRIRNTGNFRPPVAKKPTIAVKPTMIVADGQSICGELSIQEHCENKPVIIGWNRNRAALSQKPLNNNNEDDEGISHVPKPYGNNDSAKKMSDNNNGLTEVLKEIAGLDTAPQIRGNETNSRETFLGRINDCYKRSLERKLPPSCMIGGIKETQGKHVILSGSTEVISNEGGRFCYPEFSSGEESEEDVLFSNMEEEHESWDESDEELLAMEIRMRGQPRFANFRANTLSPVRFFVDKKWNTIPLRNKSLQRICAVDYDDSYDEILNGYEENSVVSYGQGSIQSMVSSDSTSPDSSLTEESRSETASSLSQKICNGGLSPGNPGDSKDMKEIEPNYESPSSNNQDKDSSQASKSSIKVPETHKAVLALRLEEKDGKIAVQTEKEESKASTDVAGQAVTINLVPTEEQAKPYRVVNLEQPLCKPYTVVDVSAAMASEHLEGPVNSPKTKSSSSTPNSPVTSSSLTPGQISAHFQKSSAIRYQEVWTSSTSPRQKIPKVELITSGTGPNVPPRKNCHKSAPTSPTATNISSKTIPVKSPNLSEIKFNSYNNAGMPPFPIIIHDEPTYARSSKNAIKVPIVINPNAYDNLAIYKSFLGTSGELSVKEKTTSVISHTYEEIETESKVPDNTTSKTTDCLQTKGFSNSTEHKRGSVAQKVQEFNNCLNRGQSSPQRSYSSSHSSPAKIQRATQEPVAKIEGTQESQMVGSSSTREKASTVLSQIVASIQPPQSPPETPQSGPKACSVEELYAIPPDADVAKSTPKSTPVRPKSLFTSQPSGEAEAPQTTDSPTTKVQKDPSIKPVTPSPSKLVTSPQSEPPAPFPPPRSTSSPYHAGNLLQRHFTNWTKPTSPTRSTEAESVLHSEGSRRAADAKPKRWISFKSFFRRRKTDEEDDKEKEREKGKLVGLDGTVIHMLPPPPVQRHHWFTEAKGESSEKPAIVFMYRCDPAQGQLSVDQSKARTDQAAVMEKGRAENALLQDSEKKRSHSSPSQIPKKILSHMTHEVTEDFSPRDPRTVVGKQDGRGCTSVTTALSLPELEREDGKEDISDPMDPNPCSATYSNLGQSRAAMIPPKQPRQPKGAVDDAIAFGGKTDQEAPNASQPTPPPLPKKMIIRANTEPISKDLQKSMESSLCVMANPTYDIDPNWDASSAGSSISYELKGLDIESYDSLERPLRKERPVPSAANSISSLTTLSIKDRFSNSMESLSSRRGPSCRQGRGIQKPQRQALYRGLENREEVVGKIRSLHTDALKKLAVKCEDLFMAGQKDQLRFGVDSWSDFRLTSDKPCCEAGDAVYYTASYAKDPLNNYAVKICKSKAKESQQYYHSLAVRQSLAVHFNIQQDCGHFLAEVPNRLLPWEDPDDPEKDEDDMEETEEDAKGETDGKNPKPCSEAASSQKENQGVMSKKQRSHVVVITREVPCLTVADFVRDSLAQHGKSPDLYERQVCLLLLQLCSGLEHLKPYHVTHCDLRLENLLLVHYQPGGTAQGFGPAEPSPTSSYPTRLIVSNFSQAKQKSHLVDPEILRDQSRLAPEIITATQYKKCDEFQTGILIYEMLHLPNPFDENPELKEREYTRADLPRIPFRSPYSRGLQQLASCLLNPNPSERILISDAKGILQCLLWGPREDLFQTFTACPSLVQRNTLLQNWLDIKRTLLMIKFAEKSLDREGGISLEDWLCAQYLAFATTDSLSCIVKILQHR

Row | SMILES | % enzyme activity (MYO3A) [%] | remaining activity at 1 µM (TESK2) [%] | % enzyme activity (CAMK1g) [%] | remaining activity at 1 µM (TLK1) [%] | remaining activity at 1 µM (PEAK1) [%] | remaining activity at 1 µM (PKA) [%] | remaining activity at 1 µM (YSK4/MAP3K19) [%]
1 | COc1cc(-c2cncc(-c3ccc(N4C[C@@H](C)N(C)[C@@H](C)C4)cc3)c2C)cc(F)c1C(N)=O [Compound 26c, 2-Fluoro-6-methoxy-4-(4-methyl-5-(4-((3R,5S)-3,4,5-trimethylpiperazin-1-yl)phenyl)pyridin-3-yl)benzamide] | 94.68 | 92.2 | 107.66 | 104 | 96.6 | 96.9 | 97
2 | COc1cc(-c2cncc(-c3ccc(N4CCN(C)CC4)cc3)c2C)cc(F)c1C(N)=O [Compound 26a, 2-Fluoro-6-methoxy-4-(4-methyl-5-(4-(4-methylpiperazin-1-yl)phenyl)pyridin-3-yl)benzamide] | 81.86 | 93.9 | 99.10 | 108 | 99.1 | 97.9 | 98.2
